The values below come from patent US20260078130A1, “NAMPT MODULATORS, PREPARATIONS, AND USES THEREOF” (SIRONAX LTD., priority 2022, published 2026).

Like-named read-outs stand apart in the source and are kept apart here.

The target in assay [1] is T1, human enzyme NAMPT (full length) (Homo sapiens, UniProt P43490).
T1 construct: human enzyme NAMPT (full length)
In words: NMN fluorescence biochemical assay (stimulation of NMN synthesis by NAMPT). The settings on record: for EC50: concentration giving half-maximal activation, read-out: Enzymatic EC50; for Enzymatic Emax: fold change of maximal activation compared to DMSO. Put shortly: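 Full-length human NAMPT (100 nM) was preincubated 15 min at 37 °C with compound in 50 mM Tris-HCl pH 7.5, 10 mM MgCl2, 2 mM DTT, then reacted 1 h at 37 °C with 50 μM NAM, 100 μM PRPP, 4 mM ATP (stated solution concentrations). NMN was derivatised with acetophenone/KOH then formic acid and read at Ex/Em 382/445 nm; EC50 and Emax (fold over DMSO) reported.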

The test system of assay [2] is endogenous NAMPT in U2OS cells. In words: Cellular NAD+ modulation assay (NAD/NADH-Glo, U2OS cells). The following applies: Homo sapiens; for maximal fold induction: read-out: Cellular Emax. In kind it is cell-based. The essentials: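 NAD/NADH-Glo luminescence quantified NAD+ after acid treatment (60 °C, 15 min) and neutralization of DTAB lysates. Beforehand, U2OS cells seeded 16 h earlier received compound concentration series for 24 h at 37 °C. Values given as half-maximal activation concentration (EC50) and maximal fold change versus DMSO (Emax).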

[3] abbreviates: NMN synthesis by purified human NAMPT (100 nM).
The mark [4] stands for this setting: 24 hours incubation with compound.
[5] abbreviates: NMN fluorescence assay, purified human NAMPT 100 nM.
Setting [6] is: 24 hours incubation, cellular NAD+.

T1 sequence (P43490 whole entry): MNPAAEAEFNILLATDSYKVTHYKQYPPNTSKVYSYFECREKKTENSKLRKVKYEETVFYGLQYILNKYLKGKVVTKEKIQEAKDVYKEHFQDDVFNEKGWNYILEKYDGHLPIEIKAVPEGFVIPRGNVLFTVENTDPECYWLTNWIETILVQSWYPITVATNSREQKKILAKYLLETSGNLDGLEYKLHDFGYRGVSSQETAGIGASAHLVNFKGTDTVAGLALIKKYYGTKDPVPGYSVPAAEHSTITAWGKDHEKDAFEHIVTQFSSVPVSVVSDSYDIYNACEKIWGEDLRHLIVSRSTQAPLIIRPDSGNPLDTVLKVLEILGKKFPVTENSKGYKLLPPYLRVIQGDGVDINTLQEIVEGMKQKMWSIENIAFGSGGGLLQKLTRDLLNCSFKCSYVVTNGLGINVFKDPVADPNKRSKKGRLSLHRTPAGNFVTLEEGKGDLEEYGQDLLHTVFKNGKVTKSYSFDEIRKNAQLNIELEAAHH

Usually EC50 stands for the concentration that produces a half-maximal response. For the compound `Cn1ncc(C#N)c1CC1c2ccccc2C(=O)N1Cc1ccc2[nH]nnc2c1` (stereo not shown) [Compound 317, 5-((2-((1H-benzo[d][1,2,3]triazol-5-yl)methyl)-3-oxoisoindolin-1-yl)methyl)-1-methyl-1H-pyrazole-4-carbonitrile], the EC50 in assay [1] (setting [3]) was under 500 nM. For the same compound, the “Enzymatic Emax” value in assay [1] is recorded as “C (2≥C)”. Also, in assay [2] (setting [4]), the EC50 was under 500 nM and the maximal fold induction lay within 1.2 to 1.5.

On to `Cn1nc(C#N)c(CC2c3ccccc3C(=O)N2Cc2ccc3[nH]nnc3c2)c1Cl` (stereo not shown) [Compound 352, 4-((2-((1H-benzo[d][1,2,3]triazol-5-yl)methyl)-3-oxoisoindolin-1-yl)methyl)-5-chloro-1-methyl-1H-pyrazole-3-carbonitrile], for which, in assay [1] (setting [5]), the EC50 was under 500 nM. Besides, in assay [1], the “Enzymatic Emax” value is “A (A>3)”. In assay [2] (setting [6]), the EC50 was under 500 nM and the maximal fold induction was over 1.5.

Consider `Cc1ccc(CC2c3ccccc3C(=O)N2Cc2ccc3[nH]c(=O)oc3c2)nc1` (stereo not shown) [Compound 161, 6-((1-((5-methylpyridin-2-yl)methyl)-3-oxoisoindolin-2-yl)methyl)benzo[d]oxazol-2(3H)-one], for which the EC50 in assay [1] (setting [3]) and in assay [2] (setting [4]) was 500 to 5000 nM each time. Moreover, the “Enzymatic Emax” value in assay [1] was “A (A>3)”. Besides, the maximal fold induction in assay [2] (setting [4]) is over 1.5.

As to `N#Cc1ccnc(C#N)c1CC1c2ccccc2C(=O)N1Cc1ccc2[nH]nnc2c1` (stereo not shown) [Compound 353, 3-((2-((1H-benzo[d][1,2,3]triazol-5-yl)methyl)-3-oxoisoindolin-1-yl)methyl)pyridine-2,4-dicarbonitrile], in assay [1] (setting [5]), the EC50 was under 500 nM. Moreover, the “Enzymatic Emax” value in assay [1] was “A (A>3)”. Besides, in assay [2] (setting [6]), the EC50 is under 500 nM and the maximal fold induction was over 1.5.

Take `O=C1c2ccccc2C(Cc2ncccc2Br)N1Cc1ccc2[nH]c(=O)oc2c1` (stereo not shown) [Compound 205, 6-((1-((3-bromopyridin-2-yl)methyl)-3-oxoisoindolin-2-yl)methyl)benzo[d]oxazol-2(3H)-one]: the concentration for a half-maximal effect (EC50) in assay [1] (setting [3]) is under 500 nM. Further, in assay [1], the “Enzymatic Emax” value is reported as “A (A>3)”. In assay [2] (setting [4]), the EC50 is under 500 nM and the maximal fold induction was over 1.5.

For `COc1ccc2c(c1)CN(Cc1ccc3[nH]c(=O)oc3c1)C2=O` [Compound 49, 6-((5-methoxy-1-oxoisoindolin-2-yl)methyl)benzo[d]oxazol-2(3H)-one], the EC50 in assay [1] (setting [3]) was at least 5000 nM. Moreover, in assay [1], the “Enzymatic Emax” value is given as “B (3≥B>2)”. Also, in assay [2] (setting [4]), the EC50 is 5000 to 50000 nM and the maximal fold induction is over 1.5.

For the compound `Cn1ncc(Cl)c1CC1c2cc(F)ccc2C(=O)N1Cc1ccc2[nH]nnc2c1` (stereo not shown) [Compound 344, 2-((1H-benzo[d][1,2,3]triazol-5-yl)methyl)-3-((4-chloro-1-methyl-1H-pyrazol-5-yl)methyl)-5-fluoroisoindolin-1-one], in assay [1] (setting [5]), the EC50 lay within 500 to 5000 nM. Also, the “Enzymatic Emax” value in assay [1] is “A (A>3)”. In assay [2] (setting [6]), the EC50 was under 500 nM and the maximal fold induction was over 1.5.

In the case of `Cc1ccc2c(c1)C(Cc1c(Cl)cnn1C)N(CC1CC3(CNC(=O)O3)C1)C2=O` (stereo not shown) [Compound 485, 2-((3-((4-chloro-1-methyl-1H-pyrazol-5-yl)methyl)-5-methyl-1-oxoisoindolin-2-yl)methyl)-5-oxa-7-azaspiro[3.4]octan-6-one], the EC50 was 500 to 5000 nM in assay [1] (setting [5]) and under 500 nM in assay [2] (setting [6]). Further, in assay [1], the “Enzymatic Emax” value is on record as “B (3≥B>2)”. Besides, the maximal fold induction in assay [2] (setting [6]) was over 1.5.

As for `Cc1ccccc1CC1c2ccccc2C(=O)N1Cc1ccc2[nH]c(=O)oc2c1` (stereo not shown) [Compound 124, 6-((1-(2-methylbenzyl)-3-oxoisoindolin-2-yl)methyl)benzo[d]oxazol-2(3H)-one], the EC50 in assay [1] (setting [3]) is under 500 nM. The “Enzymatic Emax” value in assay [1] is “A (A>3)”. In assay [2] (setting [4]), the EC50 fell in the range of 500 to 5000 nM and the maximal fold induction is over 1.5.

On to `COc1ccc(CN2C(=O)c3ccc(C4CC4)cc3C2Cc2c(C)ncnc2C#N)cn1` (stereo not shown) [Compound 640, 5-((6-cyclopropyl-2-((6-methoxypyridin-3-yl)methyl)-3-oxoisoindolin-1-yl)methyl)-6-methylpyrimidine-4-carbonitrile], for which the EC50 in assay [1] (setting [5]) was at least 5000 nM. The “Enzymatic Emax” value in assay [1] was “A (A>3)”. Further, in assay [2] (setting [6]), the EC50 lay within 500 to 5000 nM and the maximal fold induction was in the range of 1.2 to 1.5.

On to `O=C1c2ccccc2C(Cc2ccccc2C(F)(F)F)N1Cc1ccc2[nH]c(=O)oc2c1` (stereo not shown) [Compound 134, 6-((1-oxo-3-(2-(trifluoromethyl)benzyl)isoindolin-2-yl)methyl)benzo[d]oxazol-2(3H)-one], for which the EC50 in assay [1] (setting [3]) is under 500 nM; in assay [2] (setting [4]), 500 to 5000 nM. Moreover, in assay [1], the “Enzymatic Emax” value is “A (A>3)”. In assay [2] (setting [4]), the maximal fold induction is over 1.5.

As for `CCc1ccc2c(c1)C(=O)N(Cc1ccc(O)cc1)C2=O` [Compound 41, 5-ethyl-2-(4-hydroxybenzyl)isoindoline-1,3-dione], the EC50 in assay [1] (setting [3]) and in assay [2] (setting [4]) was 500 to 5000 nM each time. The “Enzymatic Emax” value in assay [1] was “A (A>3)”. For the same compound, the maximal fold induction in assay [2] (setting [4]) is 1.2 to 1.5.

For the compound `N#Cc1cccc(Cl)c1CC1c2ccccc2C(=O)N1Cc1ccc2[nH]c(=O)oc2c1` (stereo not shown) [Compound 190, 3-chloro-2-((3-oxo-2-((2-oxo-2,3-dihydrobenzo[d]oxazol-6-yl)methyl)isoindolin-1-yl)methyl)benzonitrile], in assay [1] (setting [3]), the EC50 was under 500 nM. In addition, the “Enzymatic Emax” value in assay [1] is reported as “B (3≥B>2)”. Further, in assay [2] (setting [4]), the EC50 was under 500 nM and the maximal fold induction was over 1.5.

As for `[2H]C([2H])([2H])Oc1ccc(CN2C(=O)c3ccccc3C2Cc2c(C)ccnc2C#N)cc1` (stereo not shown) [Compound 583, 3-((2-(4-(methoxy-d3)benzyl)-3-oxoisoindolin-1-yl)methyl)-4-methylpicolinonitrile], the EC50 in assay [1] (setting [5]) was 500 to 5000 nM. For the same compound, the “Enzymatic Emax” value in assay [1] was “A (A>3)”. Also, in assay [2] (setting [6]), the EC50 is under 500 nM and the maximal fold induction is over 1.5.

As to `Cn1ncc(Cl)c1CC1c2cc(C(C)(C)O)ccc2C(=O)N1Cc1ccc2[nH]nnc2c1` (stereo not shown) [Compound 382, 2-((1H-benzo[d][1,2,3]triazol-5-yl)methyl)-3-((4-chloro-1-methyl-1H-pyrazol-5-yl)methyl)-5-(2-hydroxypropan-2-yl)isoindolin-1-one], the EC50 in assay [1] (setting [5]) was in the range of 500 to 5000 nM. The “Enzymatic Emax” value in assay [1] is “B (3≥B>2)”. Moreover, in assay [2] (setting [6]), the EC50 lay within 500 to 5000 nM and the maximal fold induction was over 1.5.

In the case of `Cn1ncc(Cl)c1CC1c2cc(Br)ccc2C(=O)N1CC1CC2(CNC(=O)O2)C1` (stereo not shown) [Compound 450, 2-((5-bromo-3-((4-chloro-1-methyl-1H-pyrazol-5-yl)methyl)-1-oxoisoindolin-2-yl)methyl)-5-oxa-7-azaspiro[3.4]octan-6-one], the values for the EC50 in assay [1] (setting [5]) and in assay [2] (setting [6]) were 500 to 5000 nM and under 500 nM, respectively. In addition, the “Enzymatic Emax” value in assay [1] is on record as “A (A>3)”. Besides, in assay [2] (setting [6]), the maximal fold induction was over 1.5.

As for `O=C1c2ccccc2CN1Cc1ccc2[nH]c(=O)oc2c1` [Compound 33, 6-((1-oxoisoindolin-2-yl)methyl)benzo[d]oxazol-2(3H)-one], the EC50 in assay [1] (setting [3]) was at least 5000 nM. Also, the “Enzymatic Emax” value in assay [1] is listed as “A (A>3)”. For the same compound, in assay [2] (setting [4]), the EC50 was in the range of 5000 to 50000 nM and the maximal fold induction is 1.2 to 1.5.

For `COc1ccc(CN2C(Cc3c(Cl)cnn3C)c3ccccc3S2(=O)=O)cc1` (stereo not shown) [Compound 641, 3-((4-chloro-1-methyl-1H-pyrazol-5-yl)methyl)-2-(4-methoxybenzyl)-2,3-dihydrobenzo[d]isothiazole 1,1-dioxide], the EC50 in assay [1] (setting [5]) is at least 5000 nM. The “Enzymatic Emax” value in assay [1] was “A (A>3)”. In addition, in assay [2] (setting [6]), the EC50 was under 500 nM and the maximal fold induction is 1.2 to 1.5.

`N#Cc1nccc(Br)c1CC1c2ccccc2C(=O)N1Cc1ccc2[nH]nnc2c1` (stereo not shown) [Compound 282, 3-((2-((1H-benzo[d][1,2,3]triazol-5-yl)methyl)-3-oxoisoindolin-1-yl)methyl)-4-bromopicolinonitrile]: the EC50 in assay [1] (setting [3]) is under 500 nM. The “Enzymatic Emax” value in assay [1] is listed as “B (3≥B>2)”. Also, in assay [2] (setting [4]), the EC50 was under 500 nM and the maximal fold induction lay in the range of 1.2 to 1.5.

Turning to `O=C1c2ccccc2CN1Cc1ccc(O)cc1` [Compound 12, 2-(4-hydroxybenzyl)isoindolin-1-one], the EC50 in assay [1] (setting [3]) was at least 5000 nM. Also, the “Enzymatic Emax” value in assay [1] is recorded as “B (3≥B>2)”. Moreover, in assay [2] (setting [4]), the EC50 was 5000 to 50000 nM and the maximal fold induction is 1.2 to 1.5.

On to `Cn1ncc(Cl)c1CC1c2ccccc2C(=O)N1CC1CC2(CNC(=O)N2)C1` (stereo not shown) [Compound 611, 3-((4-chloro-1-methyl-1H-pyrazol-5-yl)methyl)-2-((6-oxo-5,7-diazaspiro[3.4]octan-2-yl)methyl)isoindolin-1-one], for which the EC50 in assay [1] (setting [5]) is at least 5000 nM. Also, the “Enzymatic Emax” value in assay [1] is on record as “C (2≥C)”. In assay [2] (setting [6]), the EC50 was 5000 to 50000 nM and the maximal fold induction was in the range of 1.2 to 1.5.

Turning to `CCC1c2ccccc2C(=O)N1Cc1ccc2[nH]c(=O)oc2c1` (stereo not shown) [Compound 53, 6-((1-ethyl-3-oxoisoindolin-2-yl)methyl) benzo[d]oxazol-2(3H)-one], the EC50 in assay [1] (setting [3]) is at least 5000 nM. For the same compound, in assay [1], the “Enzymatic Emax” value is on record as “B (3≥B>2)”. Moreover, in assay [2] (setting [4]), the EC50 lay in the range of 5000 to 50000 nM and the maximal fold induction lay in the range of 1.2 to 1.5.
